From US20070134281A1, “Investigate the potential of using beetle odours to deter slugs in vining peas” (priority 2004, published 2007)
Read-outs that look alike come from different tables or passages of the source.

How the values were obtained:
[1] = system: Deroceras reticulatum slugs; test: Glasshouse study of slug feeding damage on growing pea plants; type: in vivo; details: 2nd day of test
Excerpt: A suitable experimental design had to be substituted for this glasshouse study, based on the principles to show avoidance behaviour. This was also remarkably achieved on a five point scale to record slug behaviour, under a simple experimental procedure which lasted for only five days, to conclude this semi-field trial just by using the existing facilities alone at […] Housewares Ltd who manufactured their items for supermarket sale, provided plastic bowls in different colours to suit a random style experiment to show this current field study inside the glasshouse. Whifford Plastics Ltd produced fluon, a test chemical which had been used before to stop slugs from escaping the planned experiment in Cardiff University, was sold in litres sufficient to cover the sides of these plastic bowls by using only a simple paint brush. F. A Smith a soil merchant supplying for Cardiff University Horticultural services at Talybont, produced John Innes Potting compost No 2 commonly used in a nursery for growing peas, ideally because the sterilised soil with peat and grit added has a base fertiliser for quick germination. […] To keep the peas nice and damp and the slugs happy, the multipurpose peat based compost from the local B&Q store was adequate to support the trays of peas inside the plastic bowls which was 2⁄3 filled with this moist peat and the tray positioned so that the rim is flush with the surface of the peat. All the slugs used in this experiment were collected from the fields around Talybont, where they were actively seen to be searching for food lurking under the plants during the early hours of the morning at sunrise and pre-starved for a further 24 hours at 15° C., 80% RH, 12 hour light: dark regime, prior to testing inside the glasshouse. These were also the same species of slugs causing contamination during the routine operation in […] has a latin name Deroceras reticulatum, already well known for its physical damage to other crops under use in the UK. […]

[2] = cited from earlier work
[3] = system: Deroceras reticulatum slugs; test: Petri dish choice test (control and test sector) with test solutions made from commercial organic acids; type: in vivo; details: 24 hour period, n=10 replicates, laboratory
Method: Next, using the results obtained from Mass spectrometry to make up the test solutions with these organic acids, the behaviour of the slugs in the presence of beetle odours was now investigated. Initially this test was carried out inside the laboratory in the manner previously shown for pygidial secretions using a control and test sector to show the slug's choice overnight within a petri dish. […] However the results of all these tests still remains to be analysed and will appear in the PhD thesis only after using a computer software for image analysis.

Compound | Feeding damage by slugs on growing pea plants [1] | Solubility in water ([2]; 20° C.) | Solubility in water ([2]; cold water) | Solubility in water ([2]; hot water) | Avoidance of treated area (proportion of total area of petri dish covered by slug trails) [3]
C=C(C)C(=O)O [Methacrylic Acid] | damage was effectively reduced | 9.7 g/100 ml (20° C.) |  |  | 
C/C=C(\C)C(=O)O [Tiglic Acid] | Concern |  | sparingly | soluble | 
O=CO [Formic Acid] |  |  |  |  | scare slugs stiff
CC(=O)O [Acetic Acid] | Concern |  |  |  | 
